Source: patent US6156790A, “C-10 carbon-substituted artemisinin-like trioxane compounds having antimalarial, antiproliferative and antitumor activities” (priority 1997, dated 2000)
Like-named read-outs stand apart in the source and are kept apart here.

Experiments:
MOLT-4 = experiment: cells; settings: Homo sapiens
Description: The screening assay is performed on a 96-well microtitre plates.
Dose response curves, shown in the above mentioned Figures, are obtained by exposing various cancer cell lines to compounds having a known concentration ([log10 M]), as discussed in detail above, and then plotting the percentage growth of each cell line for each concentration. […] As discussed previously, the five drug dilutions routinely tested range from 10^-4 to 10^-9 molar.

SR = experiment: cells; type: cell-based; settings: Homo sapiens, read-out: Log10 TGI (converted)
A549/ATCC = experiment: NCI 60 cell line screen (SRB), non-small cell lung cancer; type: cell-based; settings: Homo sapiens
EKVX = experiment: as above; type: cell-based; settings: Homo sapiens
HOP-62 = experiment: cells; type: cell-based; settings: Homo sapiens
HOP-92 = experiment: NCI 60 cell line screen (SRB), non-small cell lung cancer; type: cell-based; settings: Homo sapiens
NCI-H226 = experiment: as above; type: cell-based; settings: Homo sapiens
NCI-H23 = experiment: as above; type: cell-based; settings: Homo sapiens, read-out: Log10 TGI (converted)
NCI-H460 = experiment: cells; type: cell-based; settings: Homo sapiens, NCI-H460; read-out: Log10 LC50 (converted)
HCT-116 = experiment: cells; type: cell-based; settings: Homo sapiens
HCT-15 = experiment: cells; type: cell-based; settings: Homo sapiens, HCT-15; read-out: Log10 LC50 (converted)
HT29 = experiment: cells; type: cell-based; settings: Homo sapiens, HT-29, read-out: Log10 TGI (converted)
KM12 = experiment: cells; type: cell-based; settings: Homo sapiens, read-out: Log10 TGI (converted)
SW-620 = experiment: NCI 60 cell line screen (SRB), colon cancer; type: cell-based; settings: Homo sapiens
SNB-19 = experiment: cells; type: cell-based; settings: Homo sapiens, read-out: Log10 LC50 (converted)
SNB-75 = experiment: cells; type: cell-based; settings: Homo sapiens, read-out: Log10 TGI (converted)
U251 = experiment: cells; type: cell-based; settings: Homo sapiens
SK-MEL-2 = experiment: cells; type: cell-based; settings: Homo sapiens
UACC-257 = experiment: cells; type: cell-based; settings: Homo sapiens, read-out: Log10 LC50 (converted)
OVCAR-8 = experiment: NCI 60 cell line screen (SRB), ovarian cancer; type: cell-based; settings: Homo sapiens
A498 = experiment: cells; type: cell-based; settings: Homo sapiens, read-out: Log10 LC50 (converted)
TK-10 = experiment: cells; type: cell-based; settings: Homo sapiens, read-out: Log10 LC50 (converted)
UO-31 = experiment: NCI 60 cell line screen (SRB), renal cancer; type: cell-based; settings: Homo sapiens
PC-3 = experiment: cells; type: cell-based; settings: Homo sapiens, PC-3
MCF7 = experiment: cells; type: cell-based; settings: Homo sapiens, MCF7; read-out: Log10 LC50 (converted)
MDA-MB231/ATCC = experiment: cells; type: cell-based; settings: Homo sapiens
HS 578T = experiment: cells; type: cell-based; settings: Homo sapiens
MDA-N = experiment: cells; type: cell-based; settings: Homo sapiens
BT-549 = experiment: cells; type: cell-based; settings: Homo sapiens
T-47D = experiment: cells; type: cell-based; settings: Homo sapiens, T47D; T-47D; read-out: Log10 LC50 (converted)
60 cell line panel = experiment: NCI 60 cell line screen, whole panel; type: cell-based; settings: panel
IGROVI = experiment: cells; settings: 60 cell
ACHN = experiment: cells; settings: Homo sapiens
RXF 393 = experiment: cells; settings: Homo sapiens
M14 = experiment: NCI 60 cell line screen (SRB), melanoma; settings: Homo sapiens, M14, read-out: Log10 TGI
[1] = read-out: Log10 GI50 (converted)
[2] = read-out: Log10 LC50 (converted)
[3] = read-out: Log10 TGI (converted)

Question: For `C[C@@H]1CC[C@H]2[C@@H](C)C(=O)O[C@@H]3O[C@@]4(C)CC[C@@H]1[C@]32OO4` [Artemisinin], which CC50 (MOLT-4; MOLT-4, read-out: Log10 LC50 (converted)) is on record?
Answer: > 100 µM

Question: What about the IC (TGI) (MOLT-4; MOLT-4, read-out: concentration for cytostasis) of the same molecule?
Answer: > 100 µM

Question: What about the CC50 (MOLT-4; MOLT-4, read-out: concentration for cytotoxicity) of the same molecule?
Answer: > 100 µM

Question: What about the GI50 (MOLT-4; MOLT-4, read-out: concentration for primary growth inhibition) of the same molecule?
Answer: > 100 µM

Question: What about the IC (TGI) (SR) of the same molecule?
Answer: > 100 µM

Question: What about the GI50 (A549/ATCC; [1]) of the same molecule?
Answer: 67.6 µM

Question: And the CC50 (A549/ATCC; [2])?
Answer: > 100 µM

Question: What about the IC (TGI) (A549/ATCC; [3]) of the same molecule?
Answer: > 100 µM

Question: And the CC50 (EKVX; [2])?
Answer: > 100 µM

Question: What about the IC (TGI) (EKVX; [3]) of the same molecule?
Answer: > 100 µM

Question: And the CC50 (HOP-62; [2])?
Answer: > 100 µM

Question: And the IC (TGI) (HOP-62; [3])?
Answer: > 100 µM

Question: What about the CC50 (HOP-92; [2]) of the same molecule?
Answer: > 100 µM

Question: And the IC (TGI) (HOP-92; [3])?
Answer: > 100 µM

Question: What about the CC50 (NCI-H226; [2]) of the same molecule?
Answer: > 100 µM

Question: And the IC (TGI) (NCI-H226; [3])?
Answer: > 100 µM

Question: What about the IC (TGI) (NCI-H23) of the same molecule?
Answer: > 100 µM

Question: What about the CC50 (NCI-H460) of the same molecule?
Answer: > 100 µM

Question: What about the CC50 (HCT-116; [2]) of the same molecule?
Answer: > 100 µM

Question: And the IC (TGI) (HCT-116; [3])?
Answer: > 100 µM

Question: And the CC50 (HCT-15)?
Answer: > 100 µM

Question: What about the IC (TGI) (HT29) of the same molecule?
Answer: > 100 µM

Question: And the IC (TGI) (KM12)?
Answer: > 100 µM

Question: And the CC50 (SW-620; [2])?
Answer: > 100 µM

Question: And the IC (TGI) (SW-620; [3])?
Answer: > 100 µM

Question: What about the CC50 (SNB-19) of the same molecule?
Answer: > 100 µM

Question: What about the IC (TGI) (SNB-75) of the same molecule?
Answer: > 100 µM

Question: What about the CC50 (U251; U-251, read-out: Log10 LC50 (converted)) of the same molecule?
Answer: > 100 µM

Question: What about the IC (TGI) (U251; U-251, read-out: Log10 TGI (converted)) of the same molecule?
Answer: > 100 µM

Question: What about the CC50 (SK-MEL-2; [2]) of the same molecule?
Answer: > 100 µM

Question: And the IC (TGI) (SK-MEL-2; [3])?
Answer: > 100 µM

Question: What about the CC50 (UACC-257) of the same molecule?
Answer: > 100 µM

Question: And the CC50 (OVCAR-8; [2])?
Answer: > 100 µM

Question: And the IC (TGI) (OVCAR-8; [3])?
Answer: > 100 µM

Question: What about the CC50 (A498) of the same molecule?
Answer: > 100 µM

Question: And the CC50 (TK-10)?
Answer: > 100 µM

Question: And the GI50 (UO-31; [1])?
Answer: 87.1 µM

Question: What about the CC50 (UO-31; [2]) of the same molecule?
Answer: > 100 µM

Question: What about the IC (TGI) (UO-31; [3]) of the same molecule?
Answer: 100 µM

Question: And the GI50 (PC-3; [1])?
Answer: 67.6 µM

Question: And the CC50 (PC-3; [2])?
Answer: > 100 µM

Question: What about the CC50 (MCF7) of the same molecule?
Answer: > 100 µM

Question: What about the GI50 (MDA-MB231/ATCC; MDA-MB-231, read-out: Log10 GI50 (converted)) of the same molecule?
Answer: 63.1 µM

Question: And the CC50 (MDA-MB231/ATCC; MDA-MB-231, read-out: Log10 LC50 (converted))?
Answer: > 100 µM

Question: And the IC (TGI) (MDA-MB231/ATCC; MDA-MB-231, read-out: Log10 TGI (converted))?
Answer: 100 µM

Question: And the CC50 (HS 578T; [2])?
Answer: > 100 µM

Question: And the IC (TGI) (HS 578T; [3])?
Answer: > 100 µM

Question: What about the CC50 (MDA-N; [2]) of the same molecule?
Answer: > 100 µM

Question: And the IC (TGI) (MDA-N; [3])?
Answer: > 100 µM

Question: What about the GI50 (BT-549; [1]) of the same molecule?
Answer: 87.1 µM

Question: And the CC50 (BT-549; [2])?
Answer: > 100 µM

Question: What about the IC (TGI) (BT-549; [3]) of the same molecule?
Answer: 100 µM

Question: What about the CC50 (T-47D) of the same molecule?
Answer: > 100 µM

Question: What about the GI50 (60 cell line panel; 60 cell, read-out: Log10 GI50 Delta (converted)) of the same molecule?
Answer: 85.1 µM

Question: What about the “Log10 LC50 Delta” value (60 cell line panel) of the same molecule?
Answer: -4.00

Question: What about the “Log10 TGI Delta” value (60 cell line panel) of the same molecule?
Answer: -4.00

Question: What about the “Log10 TGI Range” value (60 cell line panel) of the same molecule?
Answer: 0.06

Question: And the GI50 (IGROVI; [1])?
Answer: 49 µM

Question: And the IC (TGI) (IGROVI; read-out: Log10 TGI)?
Answer: > 100 µM

Question: And the CC50 (ACHN; [2])?
Answer: > 100 µM

Question: What about the IC (TGI) (ACHN; read-out: Log10 TGI) of the same molecule?
Answer: > 100 µM

Question: What about the GI50 (RXF 393; RXF 393, read-out: Log10 GI50 (converted)) of the same molecule?
Answer: 83.2 µM

Question: And the CC50 (RXF 393; RXF 393, read-out: Log10 LC50 (converted))?
Answer: > 100 µM

Question: What about the IC (TGI) (M14) of the same molecule?
Answer: > 100 µM
